Experimental data reported in patent US12552770B2, “Compounds for treating respiratory disease” (TMEM16A Limited, priority 2020, dated 2026).

Target: T1, human TMEM16A (TMEM16Aabc variant) (Homo sapiens, UniProt Q5XXA6, DEL476-501)
T1 sequence (Q5XXA6 with tags, fused parts or gaps isoform Q5XXA6-5 DEL539-564): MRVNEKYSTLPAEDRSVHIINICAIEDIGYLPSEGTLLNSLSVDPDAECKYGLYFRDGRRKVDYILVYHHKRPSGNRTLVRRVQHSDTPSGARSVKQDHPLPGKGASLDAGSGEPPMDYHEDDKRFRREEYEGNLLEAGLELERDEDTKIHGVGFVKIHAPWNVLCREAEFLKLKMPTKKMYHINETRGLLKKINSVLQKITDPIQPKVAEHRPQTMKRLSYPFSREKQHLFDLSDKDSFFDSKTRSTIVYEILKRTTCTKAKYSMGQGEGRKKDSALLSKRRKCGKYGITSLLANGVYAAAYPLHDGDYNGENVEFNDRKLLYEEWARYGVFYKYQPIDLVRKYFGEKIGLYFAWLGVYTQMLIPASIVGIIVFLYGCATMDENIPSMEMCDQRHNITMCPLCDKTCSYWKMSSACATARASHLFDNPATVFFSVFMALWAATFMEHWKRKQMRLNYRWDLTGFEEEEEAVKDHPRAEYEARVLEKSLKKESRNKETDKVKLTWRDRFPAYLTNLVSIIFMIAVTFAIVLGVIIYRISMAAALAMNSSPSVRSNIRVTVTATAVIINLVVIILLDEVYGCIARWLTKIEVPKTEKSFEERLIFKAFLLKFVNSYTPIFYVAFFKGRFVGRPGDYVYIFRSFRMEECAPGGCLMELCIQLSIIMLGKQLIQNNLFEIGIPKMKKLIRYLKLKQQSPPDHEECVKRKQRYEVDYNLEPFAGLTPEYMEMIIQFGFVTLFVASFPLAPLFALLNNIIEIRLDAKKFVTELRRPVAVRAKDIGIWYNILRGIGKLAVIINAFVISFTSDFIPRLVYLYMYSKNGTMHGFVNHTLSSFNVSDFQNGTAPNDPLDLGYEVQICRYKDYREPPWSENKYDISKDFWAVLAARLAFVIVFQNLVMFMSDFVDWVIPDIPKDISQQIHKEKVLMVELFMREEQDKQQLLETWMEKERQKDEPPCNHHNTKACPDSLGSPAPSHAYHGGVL
Experiment: Automated whole-cell patch clamp (Qpatch) TMEM16A potentiator assay in recombinant cells
Assay type: cell-based
Details: FRT cells stably expressing human TMEM16A, intracellular calcium at EC20; for % Potentiation @ 3.33 μM Avg: 3.33 μM solution of test compound, percentage increase of baseline TMEM16A current, peak current at +70 mV; for EC50: calculated from cumulative concentration response curve, whole-cell patch clamp
Protocol: Automated Whole-Cell Patch Clamp Assay to Detect TMEM16A Activity in Recombinant Cells
Cell Culture and Preparation
Fisher rat thyroid (FRT) cells stably expressing human TMEM16A (TMEM16Aabc variant; Dr Luis Galietta, Insituto Giannina, Italy) were cultured in T-75 flasks in Hams F-12 media with Coon's modification (Sigma) supplemented with 10% (v/v) foetal bovine serum, penicillin-streptomycin (10,000 U/mL/10000 μg/mL), G-418 (750 μg/mL), L-glutamine (2 mM) and sodium bicarbonate solution (7.5% v/v). At ˜90% confluence cells were harvested for experiments by detachment with a 2:1 (v/v) mixture of Detachin (BMS Biotechnology) and 0.25% (w/v) trypsin-EDTA. Cells were diluted to a density of 3.5-4.5×10^6 cells/mL with media consisting of CHO-S-SFM II (Sigma), 25 mM HEPES (Sigma) and Soy bean trypsin inhibitor (Sigma).
Whole-Cell Patch Clamp Recording
FRT-TMEM16A cells were whole-cell patch clamped using an automated planar patch clamp system (Qpatch, Sophion). Briefly, once high resistance (GOhm) seals were established between the cells and the planar recording array the patch was ruptured using suction pulses to establish the whole-cell recording configuration of the patch clamp technique. The assay employed the following solutions (all reagents Sigma):
Intracellular solution (mM): N-methyl-D-glucamine 130, CaCl2 18.2, MgCl2 1, HEPES 10, EGTA 10, BAPTA 20, Mg-ATP 2, pH 7.25, 325 mOsm with sucrose.
Extracellular solution (mM): N-methyl-D-glucamine 130, CaCl2 2, MgCl2 1, HEPES 10, pH 7.3, 320 mOsm with sucrose.
The intracellular solution buffers intracellular calcium at levels required to give ˜20% activation of the maximal TMEM16A mediated current (EC20 for calcium ions). Cells were voltage clamped at a holding potential of −70 mV and a combined voltage step (to +70 mV)/ramp (−90 my to +90 mV) was applied at 0.05 Hz. After a period of current stabilisation test compounds, solubilised in 100% (v/v) DMSO and subsequently diluted into extracellular solution, were applied to generate a cumulative concentration response curve. Each concentration of test compound was incubated for 5 minutes before addition of the next concentration. After the final concentration was tested a supramaximal concentration of either a known active positive modulator or the TMEM16A inhibitor, CaCCinhA01 (Del La Fuente et al, 2008) was added to define the upper and lower limits of the assay.
Compound activity was quantified by measuring the increase in current upon compound addition and expressing this as a percentage increase of baseline TMEM16A current level. Percentage increases in current were determined for each concentration and the data plotted as a function of concentration using either the Qpatch software or Graphpad Prism v6.05 providing the concentration which gave 50% of its maximal effect (EC50) and maximum efficacy (percentage of baseline increase).
In FIG. 1, IBL equals baseline current, I[#1] equals the peak current during test compound concentration 1 incubation period and so on.
Peak TMEM16A current at +70 mV was plotted as a function of time over the assay period. Baseline current (IBL) was measured after a period of stabilisation. The increase in current for each compound addition was determined by taking the peak current during the incubation period and subtracting the current from the previous recording period and then expressing this as a percentage of the baseline current. For test compound concentration 1 in FIG. 1 this is:
For each additional concentration tested the increase in current was determined by subtracting the current from the previous incubation period and normalising the baseline value—for test concentration 2 in FIG. 1 this is:
The values for each test concentration were plotted as a cumulative function of concentration e.g. for test concentration two this would be the sum of the peak changes measured during concentration one plus concentration two.

| SMILES | % Potentiation @ 3.33 μM Avg [%] | EC50 [nM] |
| --- | --- | --- |
| O=C(CC12CC3CC(CC(C3)C1)C2)Nc1ccc2[nH]c(CC3CCCCO3)nc2c1 (stereo not drawn) [Example 1.1, 2-(1-Adamantyl)-N-[2-(tetrahydropyran-2-ylmethyl)-1H-benzimidazol-5-yl]acetamide] | 100.5 | 1100 |
| CC(C)(CNC(=O)OC(C)(C)C)CNC(=O)c1ccc2[nH]c(Cc3ccccc3)nc2c1 [Example 19, tert-Butyl N-[3-[(2-benzyl-1H-benzimidazole-5-carbonyl)amino]-2,2-dimethyl-propyl]carbamate] | 181.6 | 936 |
| CC(C)(C)c1nc2ccc(C(=O)NCC3CCCCCC3)cc2[nH]1 [Example 20, 2-tert-Butyl-N-(cycloheptylmethyl)-3H-benzimidazole-5-carboxamide] | 85.9 | 776 |
| CC1(c2nc3ccc(C(=O)NCC4CCCCCC4)cc3[nH]2)CCC1 [Example 28, N-(Cycloheptylmethyl)-2-(1-methylcyclobutyl)-3H-benzimidazole-5-carboxamide] | 82 | 610 |
| O=C(NCC1CCCCCC1)c1ccn2cc(Cc3ccccc3)nc2c1 [Example 15, 2-Benzyl-N-(cycloheptylmethyl)imidazo[1,2-a]pyridine-7-carboxamide] | 58.6 | 1060 |
| CC(C)(CO)c1cc(F)cc(Cc2nc3cc(C(=O)NCC4(C(F)(F)F)CC4)ccc3[nH]2)c1O [Example 32, 2-[[5-Fluoro-2-hydroxy-3-(2-hydroxy-1,1-dimethyl-ethyl)phenyl]methyl]-N-[[1-(trifluoromethyl)cyclopropyl]methyl]-1H-benzimidazole-5-carboxamide] | 56.6 | 227 |
| Cc1c2ccc(NC(=O)CC34CC5CC(CC(C5)C3)C4)cc2nn1Cc1ccccc1 [Example 17, 2-(1-Adamantyl)-N-(2-benzyl-3-methyl-indazol-6-yl)acetamide] | 118.3 | 918 |
| O=C(CC12CC3CC(CC(C3)C1)C2)Nc1ccc2[nH]c(CC3CCCCC3)nc2c1 [Example 1, 2-(1-Adamantyl)-N-[2-(cyclohexylmethyl)-1H-benzimidazol-5-yl]acetamide] | 157.3 | 338 |

Next, values leading:

| % Potentiation @ 3.33 μM Avg [%] | EC50 [nM] | SMILES |
| --- | --- | --- |
| 106 | 176 | O=C(NCC1CCCC1)c1ccc2[nH]c(Cc3ccccc3)nc2c1 [Example 24.1, 2-Benzyl-N-(cyclopentylmethyl)-1H-benzimidazole-5-carboxamide] |
| 204.2 | 254 | O=C(CC1C2CC3CC(C2)CC1C3)Nc1ccc2[nH]c(Cc3cc(Cl)ccc3O)nc2c1 (stereo not drawn) [Example 5.2, 2-(2-Adamantyl)-N-[2-[(5-chloro-2-hydroxy-phenyl)methyl]-1H-benzimidazol-5-yl]acetamide] |
| 194.2 | 651 | COC(c1ccccc1)c1nc2cc(NC(=O)CC3C4CC5CC(C4)CC3C5)ccc2[nH]1 (stereo not drawn) [Example 2.2, 2-(2-Adamantyl)-N-[2-[methoxy(phenyl)methyl]-1H-benzimidazol-5-yl]acetamide] |
| 272 | 150 | CC(C)(C)c1cc(F)c(Cc2nc3cc(C(=O)NCCC(F)(F)F)ccc3[nH]2)cc1O [Example 21.2, 2-[(4-tert-Butyl-2-fluoro-5-hydroxy-phenyl)methyl]-N-(3,3,3-trifluoropropyl)-1H-benzimidazole-5-carboxamide] |
| 142 | 76 | O=C(NCC1CCCCCC1)c1ccc2[nH]c(Cc3cc(F)ccc3O)nc2c1 [Example 25.1, N-(Cycloheptylmethyl)-2-[(5-fluoro-2-hydroxy-phenyl)methyl]-1H-benzimidazole-5-carboxamide] |
| 83 | 200 | O=C(NCC1CCCCCC1)c1ccc2[nH]c(Cc3cccc(F)c3O)nc2c1 [Example 25.2, N-(Cycloheptylmethyl)-2-[(3-fluoro-2-hydroxy-phenyl)methyl]-1H-benzimidazole-5-carboxamide] |
| 66 | 223 | O=C(NCC1CCCCCC1)c1ccc2[nH]c(Cc3cccc(O)c3)nc2c1 [Example 25.5, N-(Cycloheptylmethyl)-2-[(3-hydroxyphenyl)methyl]-1H-benzimidazole-5-carboxamide] |
